Earlier results as cited in patent US11000594B2, “Composition comprising an organic liquid diluent and a cellulose ether of very low viscosity” (Dow Global Technologies LLC, priority 2012, dated 2021).
Values after ≈ are worked out from the molar mass of the structure shown.

water solubility: 8.54 µg/mL (≈ 24.2 µM)
SMILES: COC1=CC(=O)C[C@@H](C)[C@]12Oc1c(Cl)c(OC)cc(OC)c1C2=O [Griseofulvin]
